# Laboratory results published in patent US20140011799A1 (Bristol-Myers Squibb Company, priority 2012, published 2014).
# Experiments:
# Endothelial lipase (EL) = target: T1, Endothelial lipase (EL) (Homo sapiens, UniProt Q9Y5X9); assay: Endothelial lipase (EL) enzymatic assay, fluorescent substrate A10070 in DMPG vesicles; format: biochemical; conditions: EL from conditioned media of HT-1080 cells; compound preincubated 30 min at 37° C; read-out: EL IC50
# T1 construct: HT-1080 cells that were transformed using RAGE technology (Athersys) to overexpress endogenous EL; endogenous in cells; conditioned medium used
# T1 sequence (Q9Y5X9 21-500): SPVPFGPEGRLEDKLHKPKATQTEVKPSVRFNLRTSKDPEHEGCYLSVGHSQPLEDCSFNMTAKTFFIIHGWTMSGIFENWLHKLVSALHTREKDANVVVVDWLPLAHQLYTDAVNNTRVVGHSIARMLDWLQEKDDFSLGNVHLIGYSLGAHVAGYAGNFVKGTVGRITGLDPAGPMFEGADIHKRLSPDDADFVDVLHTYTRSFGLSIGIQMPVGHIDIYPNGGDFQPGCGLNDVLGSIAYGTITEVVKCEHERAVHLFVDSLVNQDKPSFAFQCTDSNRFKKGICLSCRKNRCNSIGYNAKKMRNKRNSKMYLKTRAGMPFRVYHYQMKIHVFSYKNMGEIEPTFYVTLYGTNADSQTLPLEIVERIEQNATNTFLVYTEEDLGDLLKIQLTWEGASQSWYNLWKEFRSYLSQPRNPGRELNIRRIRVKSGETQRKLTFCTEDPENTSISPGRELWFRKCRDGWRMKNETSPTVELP
# Outline: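 Compounds were preincubated with enzyme for 30 min at 37° C before FRET-substrate vesicles (A10070 in DMPG, 0.11 mole fraction) were added. Reaction rates were obtained from the 300–900 sec slope of fluorescence at 490/530 nm.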
# hepatic lipase (HL) = target: T2, hepatic lipase (HL) (Homo sapiens, UniProt P11150); assay: Hepatic lipase (HL) enzymatic assay, fluorescent substrate A10070 in DMPG vesicles; format: biochemical; conditions: HL partially purified from conditioned media of COS cells; compound preincubated 30 min at 37° C; read-out: HL IC50
# T2 construct: made in house; host or cells: COS cells (conditioned medium, partially purified)
# T2 sequence (P11150 23-499): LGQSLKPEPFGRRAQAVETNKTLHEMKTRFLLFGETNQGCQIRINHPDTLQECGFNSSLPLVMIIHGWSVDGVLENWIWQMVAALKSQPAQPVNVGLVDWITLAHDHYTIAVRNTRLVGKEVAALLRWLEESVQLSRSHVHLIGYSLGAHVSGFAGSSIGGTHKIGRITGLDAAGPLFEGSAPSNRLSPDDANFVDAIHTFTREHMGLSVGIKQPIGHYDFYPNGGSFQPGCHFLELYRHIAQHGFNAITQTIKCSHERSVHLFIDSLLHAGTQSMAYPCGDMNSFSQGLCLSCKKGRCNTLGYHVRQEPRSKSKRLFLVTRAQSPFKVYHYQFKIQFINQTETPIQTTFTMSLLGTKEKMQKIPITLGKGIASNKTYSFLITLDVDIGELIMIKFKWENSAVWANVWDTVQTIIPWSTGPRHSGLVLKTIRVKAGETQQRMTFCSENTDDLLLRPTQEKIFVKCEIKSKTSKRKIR
# Description: Endothelial lipase (EL) and hepatic lipase (HL) activities were measured using a fluorescent substrate, A10070, (Invitrogen, CA) doped into an artificial vesicle containing DMPG (Avanti Polar Lipids) as the excipient. Vesicles were prepared by combining 571 μL of 29 mM DMPG in a 1:1 mixture of MeOH and CHCl3 with 2000 μL of 1 mM A10070 in a 1:1 mixture of MeOH and CHCl3. The mixture was dried under nitrogen in multiple vials then resuspended in 20 mL total volume of 50 mM HEPES pH 8.0 buffer containing 50 mM NaCl and 0.2 mM EDTA. The sample was allowed to sit at room temperature for 15 min and then was sonicated 3×4 mins on ice with a Branson Sonicator using duty cycle 1. This preparation provides vesicles with a mole fraction of 0.11 for the FRET substrate.
# The enzymatic assay was measured using 384-well white Optiplates. Each well contained 20 μL of assay buffer (50 mM HEPES pH 8.0, 50 mM NaCl and 1 mM CaCl2) and 0.25 μL of a DMSO solution containing a compound of interest. EL or HL (10 μL) was added and allowed to incubate with the compound for 30 min at 37° C. The source of EL was conditioned media obtained from HT-1080 cells that were transformed using RAGE technology (Athersys) to overexpress endogenous EL, and HL was partially purified from conditioned media obtained from COS cells overexpressing HL. The reaction was started by the addition of 10 μL of a 1:10 dilution of vesicles. The final total reaction volume was […]. The reaction rates were measured on a Gemini plate reader with an excitation wavelength of 490 nm and an emission wavelength of 530 nm. Readings were taken over a period of 60 minutes, and the slope between 300 and 900 secs of the readout was used to calculate the rate of the reaction.
SMILES,IC50 (Endothelial lipase (EL)),IC50 (hepatic lipase (HL))
"CN1CCN(C(=O)c2cccc(-c3ccc4nc(C(c5nnc(CNS(N)(=O)=O)o5)S(C)(=O)=O)sc4c3)c2)CC1 (stereo not drawn) [Example 193, N-((5-((6-(3-((4-methyl-1-piperazinyl)carbonyl)phenyl)-1,3-benzothiazol-2-yl)(methylsulfonyl)methyl)-1,3,4-oxadiazol-2-yl)methyl)sulfamide]",< 10 nM,105 nM
"CNC(=O)c1cccc(-c2ccc3nc(C(c4nnc(CC5(C)NC(=O)NC5=O)o4)S(C)(=O)=O)sc3c2)c1 (stereo not drawn) [Example 218, 3-{2-[methanesulfonyl({5-[(4-methyl-2,5-dioxoimidazolidin-4-yl)methyl]-1,3,4-oxadiazol-2-yl})methyl]-1,3-benzothiazol-6-yl}-N-methylbenzamide]",10 nM,262 nM
"NS(=O)(=O)NCc1nnc(C(c2nc3ccc(-c4cccc(C(=O)NCCO)c4)cc3s2)S(=O)(=O)CCC(F)(F)F)o1 (stereo not drawn) [Example 196, N-(2-hydroxyethyl)-3-(2-((5-((sulfamoylamino)methyl)-1,3,4-oxadiazol-2-yl)((3,3,3-trifluoropropyl)sulfonyl)methyl)-1,3-benzothiazol-6-yl)benzamide]",< 10 nM,209 nM
"CS(=O)(=O)C(c1nnc(CC2SC(=O)NC2=O)o1)c1nc2ccc(-c3ccc(C(=O)OCc4ccccc4)cc3)cc2s1 (stereo not drawn) [Example 105, benzyl 4-(2-((5-((2,4-dioxo-1,3-thiazolidin-5-yl)methyl)-1,3,4-oxadiazol-2-yl)(methylsulfonyl)methyl)-1,3-benzothiazol-6-yl)benzoate]",< 10 nM,< 10 nM
"CC(C)C(O)C(=O)NCc1nnc(C(c2nc3ccc(-c4ccccc4)cc3s2)S(C)(=O)=O)o1 (stereo not drawn) [Example 154, 2-hydroxy-3-methyl-N-((5-((methylsulfonyl)(6-phenyl-1,3-benzothiazol-2-yl)methyl)-1,3,4-oxadiazol-2-yl)methyl)butanamide]",54 nM,25 nM
"O=C(NCCS(=O)(=O)C(c1nnc(CC2SC(=O)NC2=O)o1)c1nc2cc(F)c(-c3ccccc3)cc2s1)OCc1ccccc1 (stereo not drawn) [Example 167, benzyl (2-(((5-((2,4-dioxo-1,3-thiazolidin-5-yl)methyl)-1,3,4-oxadiazol-2-yl)(5-fluoro-6-phenyl-1,3-benzothiazol-2-yl)methyl)sulfonyl)ethyl)carbamate]",< 10 nM,< 10 nM
"CS(=O)(=O)C(c1nnc(CNS(N)(=O)=O)o1)c1nc2cc(-c3ncccn3)ccc2s1 (stereo not drawn) [Example 246, N-[(5-{methanesulfonyl[5-(pyrimidin-2-yl)-1,3-benzothiazol-2-yl]methyl}-1,3,4-oxadiazol-2-yl)methyl]aminosulfonamide]",9 nM,6 nM
"CC(=O)NS(=O)(=O)Cc1nnc(C(c2nc3ccc(-c4ccccc4)cc3s2)S(C)(=O)=O)o1 (stereo not drawn) [Example 169, N-(((5-((Methylsulfonyl)(6-phenyl-1,3-benzothiazol-2-yl)methyl)-1,3,4-oxadiazol-2-yl)methyl)sulfonyl)acetamide]",< 10 nM,160 nM
"COCc1ccc(-c2ccc3nc(C(c4nnc(CNS(N)(=O)=O)o4)S(=O)(=O)Cc4ccc(C(F)(F)F)cc4)sc3c2)cc1 (stereo not drawn) [Example 236, N-{[5-({6-[4-(methoxymethyl)phenyl]-1,3-benzothiazol-2-yl}[4-(trifluoromethyl)phenyl]meth-anesulfonylmethyl)-1,3,4-oxadiazol-2-yl]methyl} aminosulfonamide]",1 nM,1 nM
"CC(O)CCNC(=O)Cc1nnc(C(c2nc3ccc(-c4ccc(C(=O)N5CCOCC5)cc4)cc3s2)S(C)(=O)=O)o1 (stereo not drawn) [Example 176, N-(3-hydroxybutyl)-2-(5-((methylsulfonyl)(6-(4-(4-morpholinylcarbonyl)phenyl)-1,3-benzothiazol-2-yl)methyl)-1,3,4-oxadiazol-2-yl)acetamide]",10 nM,465 nM
"C[C@]1(Cc2nnc(C(c3nc4ccc(-c5ccc(C(=O)N6CCOCC6)cc5)cc4s3)S(C)(=O)=O)o2)OC(=O)NC1=O (stereo partly drawn) [Example 109, (5R)-5-methyl-5-((5-((methylsulfonyl)(6-(4-(4-morpholinylcarbonyl)phenyl)-1,3-benzothiazol-2-yl)methyl)-1,3,4-oxadiazol-2-yl)methyl)-1,3-oxazolidine-2,4-dione]",< 10 nM,764 nM
"NS(=O)(=O)NCc1nnc(C(c2nc3ccc(-c4ccc(Cl)c(F)c4)cc3s2)S(=O)(=O)Cc2ccccc2)o1 (stereo not drawn) [Example 140, N-((5-((benzylsulfonyl)(6-(4-chloro-3-fluorophenyl)-1,3-benzothiazol-2-yl)methyl)-1,3,4-oxadiazol-2-yl)methy) sulfamide]",< 10 nM,< 10 nM
"CC(C)(C)OC(=O)N1CC(c2nnc(C(c3nc4ccc(-c5ccccc5)cc4s3)S(=O)(=O)Cc3ccccc3)o2)C1 (stereo not drawn) [Example 33, tert-butyl 3-(5-((benzylsulfonyl) (6-phenylbenzo[d]thiazol-2-yl)methyl)-1,3,4-oxadiazol-2-yl)azetidine-1-carboxylate]",14 nM,
"NS(=O)(=O)NCc1nnc(C(c2nc3ccc(-c4ccc(F)nc4)cc3s2)S(=O)(=O)Cc2ccc(F)nc2)o1 (stereo not drawn) [Example 77, N-({5-[6-(6-fluoro-3-pyridinyl)-1,3-benzothiazol-2-yl({[6-fluoro-pyridin-3-yl]methyl}sulfonyl)methyl]-1,3,4-oxadiazol-2-yl}methyl)sulfuric diamide]",18 nM,
"CC1(Cc2nnc(C(c3nc4ccc(-c5ccc(F)nc5)cc4s3)S(C)(=O)=O)o2)NC(=O)NC1=O (single isomer, unassigned; isomer a) [Example 21, 5-((5-((6-(6-fluoropyridin-3-yl)benzo[d]thiazol-2-yl)(methylsulfonyl)methyl)-1,3,4-oxadiazol-2-yl)methyl)-5-methylimidazolidine-2,4-dione (Isomer A)]",281 nM,
"NS(=O)(=O)NCc1nnc(C(c2nc3ccc(-c4ccccc4)cc3s2)S(=O)(=O)CCCc2ccccc2)o1 (stereo not drawn) [Example 54, N-((5-((6-phenyl-1,3-benzothiazol-2-yl) ((3-phenylpropyl)sulfonyl)methyl)-1,3,4-oxadiazol-2-yl)methyl) sulfamide]",~10 nM,
"O=C1NC(=O)C(Cc2nnc(C(c3nc4cc(F)c(-c5ccccc5)cc4s3)S(=O)(=O)Cc3ccccc3)o2)S1 (stereo not drawn) [Example 91, 5-((5-((benzylsulfonyl) (5-fluoro-6-phenyl-benzo[d]thiazol-2-yl)methyl)-1,3,4-oxadiazol-2-yl)methyl) thiazolidine-2,4-dione]",< 10 nM,
"CC1(Cc2nnc(C(c3nc4ccc(-c5ccc(C(=O)N6CCOCC6)cc5)cc4s3)S(=O)(=O)Cc3ccccc3)o2)NC(=O)NC1=O (stereo not drawn) [Example 5, 5-((5-((benzylsulfonyl)(6-(4-(morpholine-4-carbonyl)phenyl)benzo[d]thiazol-2-yl)methyl)-1,3,4-oxadiazol-2-yl)methyl)-5-methylimidazolidine-2,4-dione]",30 nM,
